Source: article PMC12156367, “Synthesis and Biological Evaluation of Seco-Coumarin/Furoxan Hybrids as Potent Anti-Tumor Agents to Overcome Multidrug Resistance via Multiple Mechanisms” (Molecules, 2025)

Legend:
[1] = Solubility experiment (HPLC) in water/acetonitrile; assay type: physicochemical; conditions: in water/acetonitrile (table title)
Method: Wavelength: 254 nm; flow rate: 1.0 mL/min; column temperature: 25 °C. Mobile phase: Phase A: water, Phase B: acetonitrile (Table 5).
Compounds were dissolved in chromatographic-grade acetonitrile and diluted to concentrations of 200, 100, 50, 25, 12.5, and 6.25 µg/mL. A standard curve was plotted using the peak area under the curve (AUC) versus concentration. […] The supernatant was filtered through an ultrafiltration membrane and then subjected to HPLC analysis. The solubility of the target compound was determined by substituting the AUC of the test compound into the standard curve. Each measurement was performed in triplicate.

[2] = tested on: MCF-7/ADR (doxorubicin-resistant human breast cancer cell line); experiment: In vitro antiproliferative assay (MTT, 48 h), MCF-7/ADR; assay type: cell-based; conditions: for Selectivity Ratio IC50(MCF-7)/ IC50(MCF-7/ADR): collateral sensitivity; for IC50: Homo sapiens, NCI/ADR-RES, MTT, 48 h, mean of three determinations
Source text: The MDA-MB-468 cell line was procured from the Cell Bank of the Chinese Academy of Sciences. The MCF-7, MCF-7/ADR, MCF-10A, and MDA-MB-231 cell lines were kindly provided by Professor Xianyi Sha (Fudan University, Shanghai, China). The HUVEC cells were kindly provided by Associate Professor Hulie Zeng (Fudan University, Shanghai, China). The MDA-MB-468, MDA-MB-231, MCF-7, MCF-10A, and HUVEC cells were cultivated in DMEM (Service Biotechnology, China) supplemented with 10% FBS (Capricorn Scientific, Germany) and 1% penicillin-streptomycin (Meilunbio, Dalian, China). For the MCF-7/ADR cells, they were cultured in RPMI-1640 (Service Biotechnology, Wuhan, China), containing 10% FBS and 1% penicillin-streptomycin. Additionally, 500 ng/mL of doxorubicin (Sigma-Aldrich, Saint Louis, MO, USA) was incorporated into the RPMI-1640 culture medium to keep drug resistance. All cell lines were cultured in a humidified incubator at 37 °C with a 5% CO2 atmosphere.
Following harvest during logarithmic growth, cells were plated in 96-well culture plates at an initial density of 5000 cells per well. Incubate the plate overnight at 37 °C to allow the cells to adhere. Following the overnight incubation, introduce the compound at the predetermined concentration into each well, and then return the plate to the incubator for an additional 48 h culture period. After the 48 h treatment, carefully aspirate the drug-containing medium from each well. Subsequently, add 150 μL of 0.5 mg/mL MTT (Beyotime, China) solution to each well. Protect the plate from light and incubate it at 37 °C for 4 h to allow the formation of formazan crystals. Finally, add 150 μL of DMSO (Sinopharm, China) to each well and gently mix to ensure complete dissolution of the formazan crystals. The OD value at 570nm was measured using a microplate reader (Thermo Fisher, Waltham, MA, USA). Cell proliferation inhibition was determined using the following formula:Inhibition (%) = [(ODDMSO − ODcompd.)/(ODDMSO − ODblank)] × 100
GraphPad Prism software 9 was used to calculate the IC50 values. The specific calculation process is as follows: Firstly, we input the experimental data into Prism. The data include the concentrations of the experimental compounds and the corresponding biological response values. For instance, in the cell experiment, we recorded the cell viability values at different drug concentrations. Subsequently, we select the option of “Dose–Response–Nonlinear Regression” in the “Analyze” menu for curve fitting. Generally speaking, we use the model of “[Inhibitor] vs. normalized response—Variable slope”. The Prism software fits the data through the nonlinear least squares method and finds the parameter values that can minimize the difference between the model’s predicted values and the actual data. After completing the curve fitting, the software will directly provide the estimated values and confidence intervals of the IC50 value and other relevant parameters. Meanwhile, it will also offer goodness-of-fit indices, such as the correlation coefficient, to evaluate the quality of the fitting. Through the above method, we can accurately calculate the IC50 value, thereby assessing the intensity of the inhibitory or activating effect of the compound on the biological system.

Row | Structure (SMILES) | Solubility [1] [%] | Selectivity Ratio IC50(MCF-7)/ IC50(MCF-7/ADR) [2] | IC50 [2] [nM]
1 | COc1cc(OCCOc2no[n+]([O-])c2S(=O)(=O)c2ccccc2)ccc1C(=O)CCc1ccc(F)cc1 [Compound 9c, 4-(2-(4-(3-(4-fluorophenyl)propanoyl)-3-methoxyphenoxy)ethoxy)-3-(phenylsulfonyl)-1,2,5-oxadiazole 2-oxide] | 40.8 ± 8.2 | 137.1 | –
2 | COc1cc(OCCCOc2no[n+]([O-])c2S(=O)(=O)c2ccccc2)ccc1C(=O)CCc1ccccc1 [Compound 9b, 4-(3-(3-methoxy-4-(3-phenylpropanoyl)phenoxy)propoxy)-3-(phenylsulfonyl)-1,2,5-oxadiazole 2-oxide] | 19.4 ± 3.1 | 1152.6 | –
3 | COc1cc(OCCOc2no[n+]([O-])c2S(=O)(=O)c2ccccc2)ccc1C(=O)NCc1ccc(F)cc1 [Compound 18b, 4-(2-(4-((4-fluorobenzyl)carbamoyl)-3-methoxyphenoxy)ethoxy)-3-(phenylsulfonyl)-1,2,5-oxadiazole 2-oxide] | 60.9 ± 9.8 | 101.7 | –
4 | COc1cc(OCCCOc2no[n+]([O-])c2S(=O)(=O)c2ccccc2)ccc1C(=O)CCc1ccc(F)cc1 [Compound 9d, 4-(3-(4-(3-(4-fluorophenyl)propanoyl)-3-methoxyphenoxy)propoxy)-3-(phenylsulfonyl)-1,2,5-oxadiazole 2-oxide] | 117 ± 10.8 | 1394.2 | –
5 | COc1cc(OCCOc2no[n+]([O-])c2S(=O)(=O)c2ccccc2)ccc1C(=O)NCc1ccccc1 [Compound 18a, 4-(2-(4-(benzylcarbamoyl)-3-methoxyphenoxy)ethoxy)-3-(phenylsulfonyl)-1,2,5-oxadiazole 2-oxide] | 70.3 ± 6.1 | 47.8 | –
6 | COc1cc(OCCOc2no[n+]([O-])c2S(=O)(=O)c2ccccc2)ccc1C(=O)NCc1ccc(C#N)cc1 [Compound 18e, 4-(2-(4-((4-cyanobenzyl)carbamoyl)-3-methoxyphenoxy)ethoxy)-3-(phenylsulfonyl)-1,2,5-oxadiazole 2-oxide] | 44.7 ± 10.2 | 235.0 | 19.9
7 | COc1cc(OCCCOc2no[n+]([O-])c2S(=O)(=O)c2ccccc2)ccc1C(=O)C=Cc1ccccc1 [Compound 6a, 4-(3-(4-cinnamoyl-3-methoxyphenoxy)propoxy)-3-(phenylsulfonyl)-1,2,5-oxadiazole 2-oxide] | 60.8 ± 7.2 | 432.6 | –
8 | COc1ccc(CCC(=O)c2ccc(OCCCOc3no[n+]([O-])c3S(=O)(=O)c3ccccc3)cc2OC)cc1 [Compound 9f, 4-(3-(3-methoxy-4-(3-(4-methoxyphenyl)propanoyl)phenoxy)propoxy)-3-(phenylsulfonyl)-1,2,5-oxadiazole 2-oxide] | 125 ± 9.2 | 943.2 | –
9 | COc1cc(OCCCOc2no[n+]([O-])c2S(=O)(=O)c2ccccc2)ccc1C(=O)/C=C/c1ccc(F)cc1 [Compound 6b, (E)-4-(3-(4-(3-(4-fluorophenyl)acryloyl)-3-methoxyphenoxy)propoxy)-3-(phenylsulfonyl)-1,2,5-oxadiazole 2-oxide] | 45.8 ± 3.4 | 286.6 | –
10 | Nc1ccc(CNC(=O)c2ccc(OCCOc3no[n+]([O-])c3S(=O)(=O)c3ccccc3)cc2O)cc1 [Compound 16c, 4-(2-(4-((4-aminobenzyl)carbamoyl)-3-hydroxyphenoxy)ethoxy)-3-(phenylsulfonyl)-1,2,5-oxadiazole 2-oxide] | 327 ± 11.6 | 95.4 | –
11 | COc1cc(OCCOc2no[n+]([O-])c2S(=O)(=O)c2ccccc2)ccc1C(=O)CCc1ccccc1 [Compound 9a, 4-(2-(3-methoxy-4-(3-phenylpropanoyl)phenoxy)ethoxy)-3-(phenylsulfonyl)-1,2,5-oxadiazole 2-oxide] | 23.5 ± 4.1 | 1716.9 | –
12 | COc1cc(OCCOc2no[n+]([O-])c2S(=O)(=O)c2ccccc2)ccc1C(=O)NCc1ccc(C(F)(F)F)cc1 [Compound 18d, 4-(2-(3-methoxy-4-((4-(trifluoromethyl)benzyl)carbamoyl)phenoxy)ethoxy)-3-(phenylsulfonyl)-1,2,5-oxadiazole 2-oxide] | 26.2 ± 7.2 | 163.0 | 6.56
13 | O=C(NCc1ccc(C(F)(F)F)cc1)c1ccc(OCCOc2no[n+]([O-])c2S(=O)(=O)c2ccccc2)cc1O [Compound 16d, 4-(2-(3-hydroxy-4-((4-(trifluoromethyl)benzyl)carbamoyl)phenoxy)ethoxy)-3-(phenylsulfonyl)-1,2,5-oxadiazole 2-oxide] | 61.1 ± 2.6 | 257.8 | 10.5
14 | O=C(NCc1ccc(O)cc1)c1ccc(OCCOc2no[n+]([O-])c2S(=O)(=O)c2ccccc2)cc1O [Compound 16f, 4-(2-(3-hydroxy-4-((4-hydroxybenzyl)carbamoyl)phenoxy)ethoxy)-3-(phenylsulfonyl)-1,2,5-oxadiazole 2-oxide] | 81.0 ± 7.9 | 64.4 | –
15 | COc1cc(OCCCOc2no[n+]([O-])c2S(=O)(=O)c2ccccc2)ccc1C(C)=O [Compound 12b, 4-(3-(4-acetyl-3-methoxyphenoxy)propoxy)-3-(phenylsulfonyl)-1,2,5-oxadiazole 2-oxide] | 384 ± 9.3 | 65.6 | –
16 | COc1ccc(/C=C/C(=O)c2ccc(OCCOc3no[n+]([O-])c3S(=O)(=O)c3ccccc3)cc2OC)cc1 [Compound 6c, (E)-4-(2-(3-methoxy-4-(3-(4-methoxyphenyl)acryloyl)phenoxy)ethoxy)-3-(phenylsulfonyl)-1,2,5-oxadiazole 2-oxide] | 37.7 ± 5.2 | 44.2 | –
17 | COc1cc(OCCCOc2no[n+]([O-])c2S(=O)(=O)c2ccccc2)ccc1C(=O)/C=C/c1ccc(C#N)cc1 [Compound 6f, (E)-4-(3-(4-(3-(4-cyanophenyl)acryloyl)-3-methoxyphenoxy)propoxy)-3-(phenylsulfonyl)-1,2,5-oxadiazole 2-oxide] | 67.2 ± 6.1 | 212.9 | –
18 | COc1cc(OCCOc2no[n+]([O-])c2S(=O)(=O)c2ccccc2)ccc1C(=O)/C=C/c1ccc(C#N)cc1 [Compound 6e, (E)-4-(2-(4-(3-(4-cyanophenyl)acryloyl)-3-methoxyphenoxy)ethoxy)-3-(phenylsulfonyl)-1,2,5-oxadiazole 2-oxide] | 21.2 ± 3.3 | 328.3 | –
19 | O=C(NCc1ccccc1)c1ccc(OCCOc2no[n+]([O-])c2S(=O)(=O)c2ccccc2)cc1O [Compound 16a, 4-(2-(4-(benzylcarbamoyl)-3-hydroxyphenoxy)ethoxy)-3-(phenylsulfonyl)-1,2,5-oxadiazole 2-oxide] | 125 ± 7.1 | 7.2 | –
20 | COc1cccc2c1C(=O)c1c(O)c3c(c(O)c1C2=O)C[C@@](O)(C(=O)CO)C[C@@H]3O[C@H]1C[C@H](N)[C@H](O)[C@H](C)O1 [doxorubicin, reference compound] | – | 0.008 | –
